Experimental data reported in article PMC9948168, “Vanillin-Based Indolin-2-one Derivative Bearing a Pyridyl Moiety as a Promising Anti-Breast Cancer Agent via Anti-Estrogenic Activity” (ACS Omega, 2023).

Experiments:
Assay in all cases: NCI-60 one-dose screening
Format in all cases: cell-based
786-0 = settings: Homo sapiens, 786-0, Renal Cancer, read-out: GI (%)
Protocol: (§1) Compounds 5a–c and 6a–o were tested using standard NCI protocols for in vitro activity at the National Cancer Institute (NCI, Bethesda, Maryland, USA), wherein compounds were tested using one single concentration of 10 μM against 60 cell lines of nine different cancer types. […] Excellent activity was observed against a single NSCLC cell line, EKVX, for compounds 5a–c (GIs = 77–86%, Table 1) with no observed activity for indoles with substituted vanillin 6a–o.
(§2) Anticancer activity was tested against 60 cancer cell lines at the NCI, Bethesda, USA. The screening process was done with a single dosage of 10 μM according to NCI protocols published on the NCI website https://dtp.cancer.gov/discovery_development/nci-60/methodology.htm.

DU-145 = settings: Homo sapiens, DU-145, Prostate Cancer, read-out: GI (%)
Protocol: as §1, §2

EKVX = settings: Homo sapiens, Non-Small Cell Lung Cancer, read-out: GI (%)
Protocol: as §1, §2

HCC-2998 = settings: Homo sapiens, HCC-2998, Colon Cancer, read-out: GI (%)
Protocol: as §1, §2

HCT-116 = settings: Homo sapiens, HCT-116, Colon Cancer, read-out: GI (%)
Protocol: as §1, §2

HOP-62 = settings: Homo sapiens, HOP-62, Non-Small Cell Lung Cancer, read-out: GI (%)
Protocol: as §1, §2

HOP-92 = settings: Homo sapiens, HOP-92, Non-Small Cell Lung Cancer, read-out: GI (%)
Protocol: as §1, §2

HS 578T = settings: Homo sapiens, Breast Cancer, read-out: GI (%)
Protocol: as §1, §2

HT29 = settings: Homo sapiens, HT-29, HT29, Colon Cancer, read-out: GI (%)
Protocol: as §1, §2

IGROV1 = settings: Homo sapiens, IGROV-1, IGROV1, Ovarian Cancer, read-out: GI (%)
Protocol: as §1, §2

KM12 = settings: Homo sapiens, KM12, Colon Cancer, read-out: GI (%)
Protocol: as §1, §2

LOX IMVI = settings: Homo sapiens, Melanoma, read-out: GI (%)
Protocol: as §1, §2

MALME-3M = settings: Homo sapiens, Melanoma, read-out: GI (%)
Protocol: as §1, §2

MDA-MB-231/ATCC = settings: Homo sapiens, Breast Cancer, read-out: GI (%)
Protocol: as §1, §2

MDA-MB-468 = settings: Homo sapiens, MDA-MB-468, Breast Cancer, read-out: GI (%)
Protocol: as §1, §2

NCI-H23 = settings: Homo sapiens, NCI-H23, Non-Small Cell Lung Cancer, read-out: GI (%)
Protocol: as §1, §2

NCI-H460 = settings: Homo sapiens, NCI-H460, Non-Small Cell Lung Cancer, read-out: GI (%)
Protocol: as §1, §2

NCI-H522 = settings: Homo sapiens, NCI-H522, Non-Small Cell Lung Cancer, read-out: GI (%)
Protocol: as §1, §2

NCI/ADR-RES = settings: Homo sapiens, Ovarian Cancer, read-out: GI (%)
Protocol: as §1, §2

OVCAR-3 = settings: Homo sapiens, OVCAR-3, 10 μM; OVCAR-3, Ovarian Cancer; read-out: GI (%)
Protocol: as §1, §2

OVCAR-8 = settings: Homo sapiens, OVCAR-8, Ovarian Cancer, read-out: GI (%)
Protocol: as §1, §2

PC-3 = settings: Homo sapiens, PC-3, Prostate Cancer, read-out: GI (%)
Protocol: as §1, §2

RPMI-8226 = settings: Homo sapiens, RPMI-8226, Leukemias, read-out: GI (%)
Protocol: as §1, §2

SF-268 = settings: Homo sapiens, SF-268, CNS Cancer, read-out: GI (%)
Protocol: as §1, §2

SF-295 = settings: Homo sapiens, SF-295, CNS Cancer, read-out: GI (%)
Protocol: as §1, §2

SF-539 = settings: Homo sapiens, SF-539, CNS Cancer, read-out: GI (%)
Protocol: as §1, §2

SK-MEL-28 = settings: Homo sapiens, SK-MEL-28, Melanoma, read-out: GI (%)
Protocol: as §1, §2

SK-MEL-5 = settings: Homo sapiens, SK-MEL-5, Melanoma, read-out: GI (%)
Protocol: as §1, §2

SN12C = settings: Homo sapiens, Renal Cancer, read-out: GI (%)
Protocol: as §1, §2

SNB-75 = settings: Homo sapiens, SNB-75, CNS Cancer, read-out: GI (%)
Protocol: as §1, §2

SR = settings: Homo sapiens, Leukemias, read-out: GI (%)
Protocol: as §1, §2

T-47D = settings: Homo sapiens, T47D, Breast Cancer, read-out: GI (%)
Protocol: as §1, §2

U251 = settings: Homo sapiens, U-251, U251, CNS Cancer, read-out: GI (%)
Protocol: as §1, §2

UACC-62 = settings: Homo sapiens, UACC-62, Melanoma, read-out: GI (%)
Protocol: as §1, §2

UO-31 = settings: Homo sapiens, UO-31, Renal Cancer, read-out: GI (%)
Protocol: as §1, §2

SMILES | inhibition at 10 µM (786-0) | inhibition at 10 µM (DU-145) | inhibition at 10 µM (EKVX) | inhibition at 10 µM (HCC-2998) | inhibition at 10 µM (HCT-116) | inhibition at 10 µM (HOP-62) | inhibition at 10 µM (HOP-92) | inhibition at 10 µM (HS 578T) | inhibition at 10 µM (HT29) | inhibition at 10 µM (IGROV1) | inhibition at 10 µM (KM12) | inhibition at 10 µM (LOX IMVI) | inhibition at 10 µM (MALME-3M) | inhibition at 10 µM (MDA-MB-231/ATCC) | inhibition at 10 µM (MDA-MB-468) | inhibition at 10 µM (NCI-H23) | inhibition at 10 µM (NCI-H460) | inhibition at 10 µM (NCI-H522) | inhibition at 10 µM (NCI/ADR-RES) | inhibition at 10 µM (OVCAR-3) | also measured
COc1cc(/C=C2/C(=O)Nc3ccccc32)ccc1OCc1ccc(F)cc1 [6c] | -6.73% | -6.42% | 2.35% | -18.9% | -6.72% | -0.35% | 0.18% | -15.2% | -4.59% | -1.33% | -0.58% | 2.75% | 0.21% | -0.03% | -2.14% | 1.03% | 13.6% | 8.05% | -2.39% | -16.7% | inhibition at 10 µM (OVCAR-8): -1.99%; inhibition at 10 µM (PC-3): -0.92%; inhibition at 10 µM (RPMI-8226): -6.91%; inhibition at 10 µM (SF-268): -5.39%; inhibition at 10 µM (SF-295): -1.97%; inhibition at 10 µM (SF-539): -2.09%; inhibition at 10 µM (SK-MEL-28): -10.2%; inhibition at 10 µM (SK-MEL-5): -2.32%; inhibition at 10 µM (SN12C): 0.05%; inhibition at 10 µM (SNB-75): -5.65%; inhibition at 10 µM (SR): 9.9%; inhibition at 10 µM (T-47D): -6.65%; inhibition at 10 µM (U251): -6.26%; inhibition at 10 µM (UACC-62): 7.29%; inhibition at 10 µM (UO-31): 15.3%
COc1ccc(COc2ccc(/C=C3/C(=O)Nc4ccccc43)cc2OC)cc1 [6d] | -4.67% | -8.53% | 0.23% | -2.21% | -8.46% | -0.03% | -1% | -5.29% | -7.81% | -7.35% | -3.98% | 3.43% | 0.29% | 0.09% | -0.39% | -2.85% | -2.81% | 6.6% | -6.16% | -14.7% | inhibition at 10 µM (OVCAR-8): -0.59%; inhibition at 10 µM (PC-3): 4.22%; inhibition at 10 µM (RPMI-8226): -4.4%; inhibition at 10 µM (SF-268): -3%; inhibition at 10 µM (SF-295): -3.32%; inhibition at 10 µM (SF-539): 4.08%; inhibition at 10 µM (SK-MEL-28): -6.58%; inhibition at 10 µM (SK-MEL-5): -7.74%; inhibition at 10 µM (SN12C): 0.36%; inhibition at 10 µM (SNB-75): 2.65%; inhibition at 10 µM (SR): -1.92%; inhibition at 10 µM (T-47D): -12.8%; inhibition at 10 µM (U251): -9.05%; inhibition at 10 µM (UACC-62): 3.29%; inhibition at 10 µM (UO-31): 19.6%
COc1cc(/C=C2/C(=O)Nc3ccc(Cl)cc32)ccc1OCc1ccccc1 [6f] | -3.53% | -11.6% | 4.35% | -7.18% | -13% | 6.15% | 6.71% | 3.94% | -2.07% | 1.82% | -0.66% | -3.97% | -1.28% | 7.87% | 5.59% | 1.55% | -1.96% | 9.25% | -2.56% | -6.72% | inhibition at 10 µM (OVCAR-8): -6.25%; inhibition at 10 µM (PC-3): 10%; inhibition at 10 µM (RPMI-8226): -5.21%; inhibition at 10 µM (SF-268): 5.46%; inhibition at 10 µM (SF-295): -0.63%; inhibition at 10 µM (SF-539): 2.76%; inhibition at 10 µM (SK-MEL-28): -4.79%; inhibition at 10 µM (SK-MEL-5): 1.24%; inhibition at 10 µM (SN12C): 3.2%; inhibition at 10 µM (SNB-75): 7.95%; inhibition at 10 µM (SR): -9.47%; inhibition at 10 µM (T-47D): 5.17%; inhibition at 10 µM (U251): 2.36%; inhibition at 10 µM (UACC-62): 11.5%; inhibition at 10 µM (UO-31): 22.4%
COc1ccc(COc2ccc(/C=C3/C(=O)Nc4ccc(Cl)cc43)cc2OC)cc1 [6i] | 0.79% | -12.1% | 11.4% | -4.23% | 4.18% | 3.08% | 7.13% | -2.52% | -8.29% | 5.39% | 0.58% | 5.6% | 2.07% | -0.06% | 5.64% | 3.99% | -2% | 5.36% | 3.06% | -1.86% | inhibition at 10 µM (OVCAR-8): 1.18%; inhibition at 10 µM (PC-3): 11.3%; inhibition at 10 µM (RPMI-8226): 1.88%; inhibition at 10 µM (SF-268): -0.7%; inhibition at 10 µM (SF-295): -0.88%; inhibition at 10 µM (SF-539): -1.4%; inhibition at 10 µM (SK-MEL-28): -6.77%; inhibition at 10 µM (SK-MEL-5): 0.21%; inhibition at 10 µM (SN12C): 1.92%; inhibition at 10 µM (SNB-75): 11%; inhibition at 10 µM (SR): 24.1%; inhibition at 10 µM (T-47D): -5.11%; inhibition at 10 µM (U251): -2.19%; inhibition at 10 µM (UACC-62): 17.9%; inhibition at 10 µM (UO-31): 30.9%
COc1cc(/C=C2/C(=O)Nc3cc(Cl)ccc32)ccc1OCc1ccccc1 [6k] | -8.46% | -4.08% | 17.2% | 0.85% | -2.15% | 0.16% | 4.54% | 0.08% | -1.24% | 23.4% | 1.29% | 16.1% | 4.05% | 8.09% | 7.61% | 2.27% | 1.83% | 4.41% | -3.53% | -3.45% | inhibition at 10 µM (OVCAR-8): 0.19%; inhibition at 10 µM (PC-3): 6.35%; inhibition at 10 µM (RPMI-8226): -4.86%; inhibition at 10 µM (SF-268): -1.04%; inhibition at 10 µM (SF-295): -1.02%; inhibition at 10 µM (SF-539): 5.85%; inhibition at 10 µM (SK-MEL-28): -6.39%; inhibition at 10 µM (SK-MEL-5): -1.43%; inhibition at 10 µM (SN12C): 3.34%; inhibition at 10 µM (SNB-75): 3.2%; inhibition at 10 µM (SR): 6.78%; inhibition at 10 µM (T-47D): -0.39%; inhibition at 10 µM (U251): -7.73%; inhibition at 10 µM (UACC-62): 6.07%; inhibition at 10 µM (UO-31): 16.2%
